Experimental data: patent US12274830B2, “Nitric oxide inhalation therapy for infants with bronchiolitis” (BEYOND AIR LTD, priority 2015, dated 2025)
“Also recorded” adds a separate entry of the source.

How the values were obtained:
[1] = previous in vitro and animal studies; cited from earlier work
[2] = system: Klebsiella sp. #1; conditions: 200 ppm gNO; cited from earlier work
[3] = system: MRSA; conditions: 200 ppm gNO; cited from earlier work
[4] = system: infants with acute bronchiolitis; assay: Efficacy (LOS, time to SpO2 >=92%, time to clinical score <=5) of intermittent inhalations of 160 ppm NO in infants with acute bronchiolitis; type: in vivo, human
Method: The study was a randomized, prospective, single center, double blind study of 2-11 month old hospitalized infants with acute bronchiolitis (FIG. 1).
Subjects were screened within 4 hours of admission and randomized (1:1) to receive intermittent inhalations of 160 ppm NO along with standard treatment (NO group) or intermittent inhalations of 02/air mixture and standard treatment (control group), for a maximum of 25 inhalations.
Secondary Outcome: Efficacy parameters: LOS calculated in hours, starting from first inhalation until: 1) Oxygen saturation (SpO2) ≥92% in room-air; 2) Clinical score ≤5 (15, 16) and; 3) blinded physician decision of “ready for discharge”.
The secondary outcome were efficacy measures, including LOS, time to achieve ≥92% SaO2, and time to achieve a clinical score of ≤5. LOS in hours was defined as the time between first treatment until the time the infant was “ready for discharge”, defined as 1. Room air saturation of ≥92%; 2. Clinical severity symptom score (Table E1) of ≤5; 3. A clinical decision made by a blinded pediatrician.
A severity symptom score, was used to determine the severity of each infant (Table E1). The score was comprised of four components: Respiratory rate, use of accessory muscles, wheezes and crackles on auscultation, and % room-air oxygen saturation (SpO2). Each component is given 0 to 3 points, with a total possible score of 12. Infants with a score of <6 were determined as mild and were not included in the study, while infants with a score of >10 were determined as very severe and were also excluded.
Each patient was given 5 inhalations a day of NO (treatment group) or oxygen (control group), along with the standard supportive treatment, for a maximum of 25 inhalations (based on phase I safety data). Each participant was examined and evaluated using the severity symptom score by a blinded pediatricians every […] (9 am and 3 pm). When the room-air SpO2 reached 92%, and the score was ≤5, and the patient was assessed as “ready for discharge”, the treatment was discontinued.
Post-hoc subgroup analyses of subjects with a LOS ≤24 hours and >24 hours were also conducted for the key post-hoc secondary endpoints, for the following reasons: based on preclinical studies, the anti-microbial treatment effect of NO is expected to take approximately 2.5 hours of exposure (i.e., 24 hours treatment). A third of the subjects were discharged after <24 hours in hospital. A longer LOS is expected to correlate with a higher disease severity, and therefore any treatment effect should be more evident in the subgroup LOS >24 hours.
LOS was calculated in hours from the first inhalation treatment to “ready for discharge” defined as physician decision to discharge.
Time to achieve room-air SpO2 of ≥92% (improvement in oxygenation) leading to discharge was calculated from first treatment to the first time of room-air SpO2 of ≥92% sustained until discharge. Time to clinical score of ≤5 was calculated from the first inhalation to the first time the subject reached a clinical score of ≤5.
The following statistical tests were used in the analysis of the data presented in this study: 1. The Paired T-Test was applied for testing the statistical significance of the changes from baseline for quantitative variables within each study group; 2. The two-sample T-test or Non-parametric Wilcoxon Rank Sum test or median tests were used as appropriate for analyzing differences between the study groups in quantitative parameters; 3. The Chi-square test was applied for testing the statistical significance of the differences in frequency of categorical variables between the study groups; 4. Survival analysis using a Kaplan-Meier survival function curve was applied for testing the statistical significance of the difference between the study groups in the following endpoints: LOS, from first inhalation to ready to discharge, time to achieve 92% saturation leading to discharge, and time to achieve clinical score ≤5. […]

[5] = system: Klebsiella sp.#2; conditions: 200 ppm gNO; cited from earlier work
[6] = system: bacteria at 10E5 CFU/ml isolated from patients; conditions: 200 ppm gNO, cited from earlier work
[7] = system: Klebsiella sp. #3; conditions: 200 ppm gNO; cited from earlier work
[8] = average of the 13 bacteria above the line

## [N]=O [NO, nitric oxide]
[1]
  NO exposure needed before an anti-microbial effect was seen: at least 2.5 hours
[2]
  +2.5 Log10: 3.5 hours
  LD100: 6 h
  Latent Period: 3 h
[3]
  +2.5 Log10: 4.2 hours
  LD100: 5 h
  Latent Period: 3 h
[4]; ITT (N=42), NO group, P=0.517 vs control
  Time to first 92% O2 saturation sustained to discharge: 35.50 ± 33.73 h
[4]; ITT (N=43), NO group, P=0.621 vs control
  Mean time to reach clinical score of ≤5: 32.83 ± 30.61 h
[4]; ITT including the 16 infants discharged within <24 hours, P=0.65 vs control
  Median LOS: 40 h
[4]; ITT, 43 subjects, NO group, P=0.86 vs control
  Length of stay (LOS), mean±SD: 43.3 ± 32.95 h
[4]; Kaplan Meier, PP, LOS >24 hours, 95% CI=0.139, 0.921, P=0.028
  Hazard ratio (HR), time to first sustained 92% O2 saturation: 0.358
[4]; Kaplan-Meier, ITT, LOS >24 hours, 95% CI: 0.161, 0.949, log rank P=0.033
  Hazard ratio (HR), time to clinical score ≤5: 0.391
[4]; post-hoc ITT, LOS >24 hours subgroup, P=0.014 vs control
  Median LOS, post-hoc subgroup: 41.92 h
[4]; post-hoc, subgroup LOS >24 hours
  Clinical benefit of NO versus standard treatment (LOS, time to SpO2 ≥92%, time to clinical score ≤5): statistically significant clinical benefits; also recorded: statistically significant in favor of the NO group; also recorded: statistically significant treatment benefit
[5]
  +2.5 Log10: 4.1 hours
  LD100: 5 h
  Latent Period: 2 h
[6]; 10E5 CFU/ml
  Reduction in CFU/ml for each gNO-exposed organism: 4-6 Log10 units
[6]; [8]
  +2.5 Log10, Average: 3.82 hours
  LD100, Average: 4.77 h
  Latent Period, Average: 2.77 h
[7]
  +2.5 Log10: 5.1 hours
  LD100: 6 h
  Latent Period: 3 h
